Measurements taken from article PMC6499206, “Quantification of Volatile Metabolites Derived From Garlic (Allium sativum) in Human Urine” (Frontiers in Nutrition, 2019).

Assay: Quantification of garlic-derived metabolites in human urine after ingestion of 3 g raw garlic (SIDA, SAFE, HRGC-MS / HRGC-GC-MS)
Assay type: in vivo
Settings: 3 g raw garlic
Excerpt: Human urine samples were obtained from 18 volunteers (age 22–38 years, mean 27 years; 11 females, 7 males); thereby, one volunteer conducted the whole experimental series twice. At the time of examination, volunteers reported no known illness that might have potentially influenced the metabolism or the excretion of urine. The test persons were instructed to avoid foods that were rich in sulfur-containing substances at the testing day as well as 2 days preceding the testing day, namely garlic, onion, wild garlic, chives, cabbage, and leek, and were only allowed to consume the garlic sample provided in the course of the experiments. Additionally, subjects were asked to keep records of the food (including food supplements) and beverages they consumed during these 3 testing days. Generally, the overall panelists' requirements were in accordance with our previous studies ([5], [16]).
On the sampling day, the outer garlic cloves of a whole garlic bulb were peeled and cut into ~3 mm cubes by using a garlic cutter (Genius GmbH, Limburg/Lahn, Germany). Subsequently these cubes were thoroughly mixed and aliquoted into 3 g portions. Three to four test persons conducted the experiment at the same day. Each test person was asked to ingest a garlic portion of 3 g. In total, eight consecutive urine samples were provided by each test person, comprising one whole urine set. The samples were collected in sterile brown glass bottles, with sampling times as follows: one sample was provided directly prior to garlic consumption. The series of the second to eighth sample was then obtained at about 0.5, 1, 2, 4, 6, 8, and 24 h after garlic consumption, respectively. Between the first urine sample (prior to garlic consumption) and the seventh urine sample (8 h after garlic consumption) test persons only spent urine at the specific time points mentioned before. Another sample was provided at the next morning (24 h after garlic consumption). Between the samples provided 8 and 24 h after garlic consumption no urine was collected. All samples were immediately placed into a −80°C freezer and were kept frozen until further analysis.
The samples of each set were termed according to their sampling time. The following list provides the time intervals that are related to the respective sample name: • - pre: before garlic consumption • - 0.5 h post: 0.4–0.8 h after garlic consumption • - 1 h post: 0.9–1.3 h after garlic consumption • - 2 h post: 1.8 h−2.2 h after garlic consumption • - 4 h post: 3.8–4.4 h after garlic consumption • - 6 h post: 5.8–6.4 h after garlic consumption • - 8 h post: 7.8–8.4 h after garlic consumption • - 24 h post: 23.8–25.6 h after garlic consumption
A creatinine kit (Labor+Technik Eberhard Lehmann GmbH, Berlin, Germany) was used to determine the creatinine content in each urine sample. The determination principle of this kit is based on the reaction of creatinine with picric acid under basic conditions (Jaffé reaction). The formed complex was detected photometrically at a wavelength of 492 nm.
For quantification purposes, the deuterated standards ^2H3-AMS, ^2H3-AMSO, and ^2H3-AMSO2 were added to the sample and stirred for 10 min. Subsequently, DCM was added in a ratio of 1:2 (DCM/human urine; v/v) and this solution was stirred for further 30 min at room temperature. To isolate the volatile fraction from the urine samples we then applied SAFE-distillation ([17]), thereby distilling the respective samples at 50°C. After completion of the distillation process, 10 mL of DCM were applied in each case to rinse the SAFE apparatus and to ensure complete transition of the volatile compounds. This process was repeated with another 10 mL of DCM. After thawing, the obtained aqueous distillate phase was extracted three times with 25 mL DCM. The organic phases were combined, dried over anhydrous Na2SO4 and concentrated to a total volume of 100 μL by means of Vigreux distillation and subsequent micro-distillation at 50°C. […]

Structure (SMILES): C=CCSC [AMS, allyl methyl sulfide]
- metabolite concentration in urine, creatinine-normalized (U IV, 6 h post (6.08 h)): 0.04 µg/mmol creatinine
- metabolite concentration in urine (U IV, 8 h post (8.05 h)): 0.3 µg/kg
- metabolite concentration in urine, creatinine-normalized (U IV, 8 h post (8.05 h)): 0.1 µg/mmol creatinine
- metabolite concentration in urine (U IV, 24 h post (24.03 h)): 0.5 µg/kg
- metabolite concentration in urine, creatinine-normalized (U IV, 24 h post (24.03 h)): 0.1 µg/mmol creatinine
- metabolite concentration in urine (U IV, pre (-0.05 h)): < LOD^1
- metabolite concentration in urine, creatinine-normalized (U IV, pre (-0.05 h)): < LOD^1
- metabolite concentration in urine (U IX, 0.5 h post (0.67 h)): 1.0 µg/kg
- metabolite concentration in urine, creatinine-normalized (U IX, 0.5 h post (0.67 h)): 0.9 µg/mmol creatinine
- metabolite concentration in urine (U IX, 1 h post (1.17 h)): 1.5 µg/kg
- metabolite concentration in urine, creatinine-normalized (U IX, 1 h post (1.17 h)): 1.4 µg/mmol creatinine
- metabolite concentration in urine (U IX, 2 h post (1.83 h)): 1.4 µg/kg
- metabolite concentration in urine, creatinine-normalized (U IX, 2 h post (1.83 h)): 1.2 µg/mmol creatinine
- metabolite concentration in urine (U IX, 4 h post (4.17 h)): 2.5 µg/kg
- metabolite concentration in urine, creatinine-normalized (U IX, 4 h post (4.17 h)): 0.5 µg/mmol creatinine
- metabolite concentration in urine (U IX, 6 h post (6.08 h)): 1.7 µg/kg
- metabolite concentration in urine, creatinine-normalized (U IX, 6 h post (6.08 h)): 0.5 µg/mmol creatinine
- metabolite concentration in urine (U IX, 8 h post (8.08 h)): 0.8 µg/kg
- metabolite concentration in urine, creatinine-normalized (U IX, 8 h post (8.08 h)): 0.1 µg/mmol creatinine
- metabolite concentration in urine (U IX, 24 h post (24.00 h)): traces^1
- metabolite concentration in urine, creatinine-normalized (U IX, 24 h post (24.00 h)): traces^1
- metabolite concentration in urine (U IX, pre (-0.08 h)): < LOD^1
- metabolite concentration in urine, creatinine-normalized (U IX, pre (-0.08 h)): < LOD^1
- metabolite concentration in urine (U V, 0.5 h post (0.50 h)): 0.5 µg/kg
- metabolite concentration in urine, creatinine-normalized (U V, 0.5 h post (0.50 h)): 0.7 µg/mmol creatinine
- metabolite concentration in urine (U V, 1 h post (1.00 h)): 0.7 µg/kg
- metabolite concentration in urine, creatinine-normalized (U V, 1 h post (1.00 h)): 0.8 µg/mmol creatinine
- metabolite concentration in urine (U V, 2 h post (2.00 h)): 0.7 µg/kg
- metabolite concentration in urine, creatinine-normalized (U V, 2 h post (2.00 h)): 0.8 µg/mmol creatinine
- metabolite concentration in urine (U V, 4 h post (4.00 h)): 0.9 µg/kg
- metabolite concentration in urine, creatinine-normalized (U V, 4 h post (4.00 h)): 0.3 µg/mmol creatinine
- metabolite concentration in urine (U V, 6 h post (6.00 h)): 0.7 µg/kg
- metabolite concentration in urine, creatinine-normalized (U V, 6 h post (6.00 h)): 0.1 µg/mmol creatinine
- metabolite concentration in urine (U V, 8 h post (8.00 h)): 0.3 µg/kg
- metabolite concentration in urine, creatinine-normalized (U V, 8 h post (8.00 h)): 0.2 µg/mmol creatinine
- metabolite concentration in urine (U V, 24 h post (24.00 h)): traces^1
- metabolite concentration in urine, creatinine-normalized (U V, 24 h post (24.00 h)): traces^1
- metabolite concentration in urine (U V, pre (-0.05 h)): < LOD^1
- metabolite concentration in urine, creatinine-normalized (U V, pre (-0.05 h)): < LOD^1
- metabolite concentration in urine (U VI, 0.5 h post (0.50 h)): 1.1 µg/kg
- metabolite concentration in urine, creatinine-normalized (U VI, 0.5 h post (0.50 h)): 0.5 µg/mmol creatinine
- metabolite concentration in urine (U VI, 1 h post (1.00 h)): 0.7 µg/kg
- metabolite concentration in urine, creatinine-normalized (U VI, 1 h post (1.00 h)): 0.6 µg/mmol creatinine
- metabolite concentration in urine (U VI, 2 h post (2.00 h)): 1.0 µg/kg
- metabolite concentration in urine, creatinine-normalized (U VI, 2 h post (2.00 h)): 0.9 µg/mmol creatinine
- metabolite concentration in urine (U VI, 4 h post (4.00 h)): 1.2 µg/kg
- metabolite concentration in urine, creatinine-normalized (U VI, 4 h post (4.00 h)): 0.3 µg/mmol creatinine
- metabolite concentration in urine (U VI, 6 h post (6.00 h)): 0.9 µg/kg
- metabolite concentration in urine, creatinine-normalized (U VI, 6 h post (6.00 h)): 0.2 µg/mmol creatinine
- metabolite concentration in urine (U VI, 8 h post (8.00 h)): 0.5 µg/kg
- metabolite concentration in urine, creatinine-normalized (U VI, 8 h post (8.00 h)): 0.1 µg/mmol creatinine
- metabolite concentration in urine (U VI, 24 h post (24.17 h)): traces^1
- metabolite concentration in urine, creatinine-normalized (U VI, 24 h post (24.17 h)): traces^1
- metabolite concentration in urine (U VI, pre (-0.05 h)): < LOD^1
- metabolite concentration in urine, creatinine-normalized (U VI, pre (-0.05 h)): < LOD^1
- metabolite concentration in urine (U VII, 0.5 h post (0.50 h)): 0.6 µg/kg
- metabolite concentration in urine, creatinine-normalized (U VII, 0.5 h post (0.50 h)): 0.5 µg/mmol creatinine
- metabolite concentration in urine (U VII, 1 h post (1.08 h)): 1.3 µg/kg
